Test results as given in ChEMBL document CHEMBL5385976, “Recognition of arylmethylidene derivatives of imidazothiazolotriazinones as novel tubulin polymerization inhibitors” (RSC Med Chem, 2024).

What was measured:
Assay type in all cases: functional
[1] = system: SR; assay: Anticancer activity against human SR cells assessed as cell growth at 10 umol/L incubated for 48 hrs by SRB assay relative to control; conditions: dose 10 µmol/L, read-out: Activity
[2] = system: TK-10; assay: Anticancer activity against human TK-10 cells assessed as cell growth at 10 umol/L incubated for 48 hrs by SRB assay relative to control; conditions: TK-10, 48 h, dose 10 µmol/L, read-out: Activity
[3] = system: RPMI-8226; assay: Anticancer activity against human RPMI-8226 cells assessed as cell growth at 10 umol/L incubated for 48 hrs by SRB assay relative to control; conditions: RPMI-8226, 48 h, dose 10 µmol/L, read-out: Activity
[4] = system: CAKI-1; assay: Anticancer activity against human CAKI-1 cells assessed as cell growth at 10 umol/L incubated for 48 hrs by SRB assay relative to control; conditions: CAKI-1, 48 h, dose 10 µmol/L, read-out: Activity
[5] = system: K562; assay: Induction of cell cycle arrest in human K562 cells at G2/M phase at 0.5 uM incubated for 3 days by RNase/PI staining based flow cytometry (reference value: 31 %); conditions: time 3 day
[6] = system: K562; assay: Anticancer activity against human K562 cells assessed as cell growth at 10 umol/L incubated for 48 hrs by SRB assay relative to control; conditions: K562, 48 h, dose 10 µmol/L, read-out: Activity
[7] = system: LOX IMVI; assay: Anticancer activity against human LOX IMVI cells assessed as cell growth at 10 umol/L incubated for 48 hrs by SRB assay relative to control; conditions: dose 10 µmol/L, read-out: Activity
[8] = system: OVCAR-5; assay: Anticancer activity against human OVCAR-5 cells assessed as cell growth at 10 umol/L incubated for 48 hrs by SRB assay relative to control; conditions: OVCAR-5, 48 h, dose 10 µmol/L, read-out: Activity
[9] = system: NCI/ADR-RES; assay: Anticancer activity against human NCI-ADR-RES cells assessed as cell growth at 10 umol/L incubated for 48 hrs by SRB assay relative to control; conditions: dose 10 µmol/L, read-out: Activity
[10] = system: M14; assay: Anticancer activity against human M14 cells assessed as cell growth at 10 umol/L incubated for 48 hrs by SRB assay relative to control; conditions: M14, 48 h, dose 10 µmol/L, read-out: Activity
[11] = system: Panel NCI-60 (60 carcinoma cell lines); assay: Antiproliferative activity against human panel NCI-60 (60 carcinoma cell lines) assessed as mean cell growth at 10 umol/L incubated for 48 hrs by SRB assay relative to control; conditions: dose 10 µmol/L, at 10 µM
[12] = system: PC-3; assay: Anticancer activity against human PC-3 cells assessed as cell growth at 10 umol/L incubated for 48 hrs by SRB assay relative to control; conditions: PC-3, 48 h, dose 10 µmol/L, read-out: Activity
[13] = system: HOP-62; assay: Anticancer activity against human HOP-62 cells assessed as cell growth at 10 umol/L incubated for 48 hrs by SRB assay relative to control; conditions: HOP-62, 48 h, dose 10 µmol/L, read-out: Activity
[14] = system: HOP-92; assay: Anticancer activity against human HOP-92 cells assessed as cell growth at 10 umol/L incubated for 48 hrs by SRB assay relative to control; conditions: HOP-92, 48 h, dose 10 µmol/L, read-out: Activity
[15] = system: IGROV-1; assay: Anticancer activity against human IGROV-1 cells assessed as cell growth at 10 umol/L incubated for 48 hrs by SRB assay relative to control; conditions: IGROV-1, 48 h, dose 10 µmol/L, read-out: Activity
[16] = system: UACC-62; assay: Anticancer activity against human UACC-62 cells assessed as cell growth at 10 umol/L incubated for 48 hrs by SRB assay relative to control; conditions: UACC-62, 48 h, dose 10 µmol/L, read-out: Activity
[17] = system: A498; assay: Anticancer activity against human A498 cells assessed as cell growth at 10 umol/L incubated for 48 hrs by SRB assay relative to control; conditions: A498, 48 h, dose 10 µmol/L, read-out: Activity
[18] = system: 786-0; assay: Anticancer activity against human 786-0 cells assessed as cell growth at 10 umol/L incubated for 48 hrs by SRB assay relative to control; conditions: 786-0, 48 h, dose 10 µmol/L, read-out: Activity
[19] = system: MOLT-4; assay: Anticancer activity against human MOLT-4 cells assessed as cell growth at 10 umol/L incubated for 48 hrs by SRB assay relative to control; conditions: MOLT-4, 48 h, dose 10 µmol/L, read-out: Activity
[20] = system: HL-60(TB); assay: Anticancer activity against human HL-60(TB) cells assessed as cell growth at 10 umol/L incubated for 48 hrs by SRB assay relative to control; conditions: HL-60, 48 h, dose 10 µmol/L, read-out: Activity
[21] = system: COLO 205; assay: Anticancer activity against human COLO 205 cells assessed as cell growth at 10 umol/L incubated for 48 hrs by SRB assay relative to control; conditions: COLO 205, 48 h, dose 10 µmol/L, read-out: Activity
[22] = system: SNB-19; assay: Anticancer activity against human SNB-19 cells assessed as cell growth at 10 umol/L incubated for 48 hrs by SRB assay relative to control; conditions: SNB-19, 48 h, dose 10 µmol/L, read-out: Activity
[23] = system: RXF 393; assay: Anticancer activity against human RXF 393 cells assessed as cell growth at 10 umol/L incubated for 48 hrs by SRB assay relative to control; conditions: RXF 393, 48 h, dose 10 µmol/L, read-out: Activity
[24] = system: SK-OV-3; assay: Anticancer activity against human SK-OV-3 cells assessed as cell growth at 10 umol/L incubated for 48 hrs by SRB assay relative to control; conditions: SK-OV-3, 48 h, dose 10 µmol/L, read-out: Activity
[25] = system: KM12; assay: Anticancer activity against human KM12 cells assessed as cell growth at 10 umol/L incubated for 48 hrs by SRB assay relative to control; conditions: KM12, 48 h, dose 10 µmol/L, read-out: Activity
[26] = system: CCRF-CEM; assay: Anticancer activity against human CCRF-CEM cells assessed as cell growth at 10 umol/L incubated for 48 hrs by SRB assay relative to control; conditions: dose 10 µmol/L, read-out: Activity
[27] = system: NCI-H23; assay: Anticancer activity against human NCI-H23 cells assessed as cell growth at 10 umol/L incubated for 48 hrs by SRB assay relative to control; conditions: NCI-H23, 48 h, dose 10 µmol/L, read-out: Activity
[28] = system: NCI-H226; assay: Anticancer activity against human NCI-H226 cells assessed as cell growth at 10 umol/L incubated for 48 hrs by SRB assay relative to control; conditions: NCI-H226, 48 h, dose 10 µmol/L, read-out: Activity
[29] = system: SW-620; assay: Anticancer activity against human SW620 cells assessed as cell growth at 10 umol/L incubated for 48 hrs by SRB assay relative to control; conditions: SW-620, 48 h, dose 10 µmol/L, read-out: Activity
[30] = system: SN12C; assay: Anticancer activity against human SN12C cells assessed as cell growth at 10 umol/L incubated for 48 hrs by SRB assay relative to control; conditions: dose 10 µmol/L, read-out: Activity
[31] = system: SK-MEL-5; assay: Anticancer activity against human SK-MEL-5 cells assessed as cell growth at 10 umol/L incubated for 48 hrs by SRB assay relative to control; conditions: SK-MEL-5, 48 h, dose 10 µmol/L, read-out: Activity

SMILES	growth at 10 µM [1]	growth at 10 µM [2]	growth at 10 µM [3]	growth at 10 µM [4]	Activity [5]	growth at 10 µM [6]	growth at 10 µM [7]	growth at 10 µM [8]	growth at 10 µM [9]	growth at 10 µM [10]	Activity [11]	growth at 10 µM [12]	growth at 10 µM [13]	growth at 10 µM [14]	growth at 10 µM [15]	growth at 10 µM [16]	growth at 10 µM [17]	growth at 10 µM [18]	growth at 10 µM [19]	growth at 10 µM [20]	further results
CCN1C(=O)N(CC)C2C1NN=c1s/c(=C\c3ccc(Cl)cc3Cl)c(=O)n12 (configuration not stated)	12.3%	67.7%	16.5%	21.1%	65%	83.7%	18.3%	28.2%	5.7%	13.8%	18.2%	24.6%	33.5%	50.9%	-43.3%	28.9%	16.9%	20.6%	12.9%	9.4%	growth at 10 µM [21]: -7.9%; growth at 10 µM [22]: 27.9%; growth at 10 µM [23]: 61.1%; growth at 10 µM [24]: 29.2%; growth at 10 µM [25]: 7.5%; growth at 10 µM [26]: -52.1%; growth at 10 µM [27]: 28.4%; growth at 10 µM [28]: 48.8%; growth at 10 µM [29]: 20.5%; growth at 10 µM [30]: 21.5%; growth at 10 µM [31]: 66.1%
COc1cc2c(c(OC)c1OC)-c1ccc(OC)c(=O)cc1[C@@H](NC(C)=O)CC2 [COLCHICINE]	5.4%	52.7%	2.3%	20.3%	56%	-25.7%	26.5%	31.2%	-20.9%	1.7%	8.4%	-28.6%	20%	2.4%	-49%	19.1%	15.5%	15.4%	6.7%	13%	growth at 10 µM [21]: -47.6%; growth at 10 µM [22]: 19%; growth at 10 µM [23]: 15.3%; growth at 10 µM [24]: 36.1%; growth at 10 µM [25]: 3.7%; growth at 10 µM [26]: -38.2%; growth at 10 µM [27]: 12.6%; growth at 10 µM [28]: 31%; growth at 10 µM [29]: 26.4%; growth at 10 µM [30]: 46.8%; growth at 10 µM [31]: 30.7%
